Assay results published in patent US20130281313A1, “PROGNOSTIC AND/OR PREDICTIVE BIOMARKERS AND BIOLOGICAL APPLICATIONS THEREOF” (INSTITUT GUSTAVE ROUSSY, priority 2010, published 2013).

Experiments:
Type in all cases: cell-based, human
A549 cells [1] = assay: Targeted metabolomic studies (ATP, ADP, AMP, GSH; RRLC-MS); conditions: A549 cells, 24 h
Procedure: A549 cells were left untreated or treated with 25 μM CDDP alone or in combination with 5 mM PN, for 24 h. Thereafter, both attached (living) and detached (dying/dead) cells were harvested, washed once in cold PBS and pelleted (800 G for 5 min). Pellets were resuspended in 200 μL deionized water, briefly vortexed and sonicated. 800 μl ice-cold methanol was added, and samples were kept in ice for 15 min, vortexed and centrifuged at 13,000 G for 10 min at 4° C. Supernatants were dried in a SpeedVac drier (Thermo Scientific-Pierce) and stored at −80° C. until analysis. Pellets were resuspended in 150 μL 98:2 water/acetonitrile immediately before analytical determinations (see below).
ATP, ADP, AMP and GSH were quantified on a Rapid Resolution Liquid Chromatography (RRLC) 1200SL system coupled to a 6410 Triple Quadripole (QQQ) mass spectrometer (both from Agilent Technologies). For nucleotides, RRLC was performed on 150×2.1 mm, 3.5 μM Eclipse Plus columns (Agilent Technologies) with water containing 4 mM dimethylhexylamine (DMHA) plus 0.01% (v/v) acetic acid in channel A and acetonitrile in channel B, in gradient mode at a flow rate of 0.2 mL/min: t=0 min 2% B; t=9 min 32% B; t=10 min 95% B; T=12 min 95% B, re-equilibration time=6 min. Mass spectrometry was performed in positive electrospray ionization mode at +4 kV on the QQQ system operating in MRM mode. MRM transitions were optimized with direct infusions of ATP, ADP, and AMP standards with direct infusion, and four transitions were recorded for each compounds. Parent ions were adduct ions of DMHA and also proton adducts:
For GSH, RRLC was performed on a 150×2.1 mm, 3.5 μM Stable Bond AQ column (Agilent Technologies) with water containing 0.2% (v/v) acetic acid in channel A and methanol in channel B, in gradient mode at a flow rate of 0.3 mL/min: t=0 min 2% B; t=8 min 95% B; t=9 min 95% B; re-equilibration time=6 min. Mass spectrometry was performed as above. MRM transitions were optimized with direct infusion of GSH standards.
Data collection and analysis were performed with the MassHunter software (Agilent Technologies).

[2] = tested on: CDDP-resistant A549 clones (A549 #1-3), HCC827, H1299, H1650, H1975, HeLa, U2OS and WT HCT 116 cells; assay: Cytofluorometric assessment of cell death, CDDP alone or combined with PN, panel of cell lines; conditions: sub-apoptotic dose of CDDP alone or combined with 2.5 mM PN
Text: (A-C) Cytofluorometric assessment of cell death induced by the indicated sub-apoptotic dose of cisplatin (CDDP) alone or combined with PN in 3 distinct CDDP-resistant A549 clones (A549 #1-3, A), in 4 non-small cell lung cancer (NSCLC) cell lines other than A549 (HCC827, H1299, H1650 and H1975 cells, B), in cervical carcinoma HeLa cells, in osteosarcoma U2OS cells as well as in wild type (WT) or TP53^−/− colon carcinoma HCT 116 cells (C).
Unless otherwise specified, chemicals were purchased from Sigma-Aldrich (St. Louis, USA), culture media and supplements for cell culture from Gibco-Invitrogen (Carlsbad, USA) and plasticware from Corning (Corning, USA). Anti-human interleukin 6 (IL6, goat antiserum #AB-206-A) and IL6 receptor (IL6R, goat antiserum #AB-227-A) neutralizing antibodies were purchased by R&D Systems (Minneapolis, USA). Orlistat (Xenical®) was obtained from Roche (Basel, Switzerland). […]
To measure apoptosis-related parameters, living cells were labeled for 30 min at +37° C. with 40 nM 3,3′dihexyloxalocarbocyanine iodide (DiOC6(3), from Molecular Probes-Invitrogen, Eugene, USA), which quantifies the mitochondrial transmembrane potential (Δψm), plus 1 μg/mL propidium iodide (PI), which only accumulates in cells with ruptured plasma membrane {Galluzzi, 2009; Galluzzi, 2008; Galluzzi, 2007}. […]

A549 cells [3] = assay: Cell cycle distribution (PI staining, cytofluorometry); conditions: 10 μM CDDP alone or with PN and/or NAC
Procedure: To measure apoptosis-related parameters, living cells were labeled for 30 min at +37° C. with 40 nM 3,3′dihexyloxalocarbocyanine iodide (DiOC6(3), from Molecular Probes-Invitrogen, Eugene, USA), which quantifies the mitochondrial transmembrane potential (Δψm), plus 1 μg/mL propidium iodide (PI), which only accumulates in cells with ruptured plasma membrane {Galluzzi, 2009; Galluzzi, 2008; Galluzzi, 2007}. To assess cell cycle distribution, cells were collected, fixed by gentle vortexing in ice-cold 80% (v/v) ethanol (Carlo Erba Reagents, Milano, Italy) and stained with 50 μg/mL PI in 0.1% (w/v) D-glucose in PBS supplemented with 1 μg/mL (w/v) RNAse A {Mondragon, 2009; Mouhamad, 2007}. All cytofluorometric determinations were carried out a FACSCalibur or a FACScan cytofluorometer (BD Biosciences, San Jose, USA) equipped with a 70 μm nozzle.
First line statistical analysis of cytofluorometric results was performed by using the CellQuest™ software (BD Biosciences), by gating on the events characterized by normal forward scatter and side scatter parameters. Apoptosis- and cell cycle-related data were further analyzed with Microsoft Excel (Microsoft Co., Redmond, USA) and statistical significance was assessed by means of two-tailed Student's t test (p<0.05).

A549 cells [4] = assay: Real-time measurements of cell adherence (impedance); conditions: 50 μM CDDP alone or with 5 mM PN
Procedure: 5×10^3 A549 cells were seeded in standard culture conditions on 96-well plates coated with gold microelectrodes (E-plates™, Roche) and let adapt and recover growth for 40 h. Thereafter, cells were treated with 50 μM CDDP alone or in association with 5 mM PN for additional 48 h. Since plating, the adherence of cells to the plate was monitored every 15 min (as a function of plate impedance) by means of an xCELLigence™ Real-Time Cell Analyzer (RTCA, from Roche).
Cell adherence was measured in 3 parallel wells for each experimental condition.
Results are reported as mean cell index (CI) values, which constitute an indication of electrode impedance, ±SEM.

**Q.** `N.N.[Cl][Pt][Cl]` [CDDP, cis-diammineplatinum(II) dichloride] was tested. Which “intracellular levels of GSH” value (A549 cells [1]; 25 μM CDDP) did it give?
**A.** a decrease in the intracellular levels of GSH

**Q.** With `Cc1ncc(CO)c(CO)c1O` [PN, pyridoxine] as the molecule, how does the “chemosensitization to CDDP in other cancer cell lines” value [2] read?
**A.** exerted chemosensitizing effects

**Q.** And the “cell cycle arrest induced by CDDP” value (A549 cells [3])?
**A.** not affected by the presence of PN

**Q.** And the “CDDP-induced cell death measured as impedance caused by attached, viable cells” value (A549 cells [4])?
**A.** exacerbated CDDP-induced cell death

**Q.** What about the “Atkinson's energy charge” value (A549 cells [1]; 25 μM CDDP and 5 mM PN in combination, not present with either compound alone) of the same molecule?
**A.** exhibited a bioenergetic defect

**Q.** And the “CDDP-induced decrease in GSH and redox-relevant metabolites (carnitine, acetylcarnitine, propionylcarnitine)” value (A549 cells [1]; 25 μM CDDP with 5 mM PN)?
**A.** largely exacerbated by PN
